This is an account of results in patent US6831100B2, “Menthyl benzoate formulations for external UV protection” (priority 2000, dated 2004).

In data set [1] the test system is Escherichia coli wild type strain CA 8000. Briefly: UV protection assay through compound-coated UV transparent film. It is filed as cell-based. The settings on record: for Protection (%) / Titre after UV exposure, film coated with menthyl benzoate / Killing (%), film coated with menthyl benzoate: film coated 50 μg per ml, 312 nm; for Titre after UV exposure, film coated with menthyl benzoate: initial titre 2.490 × 10^8. An excerpt: (§1) UV light is not only harmful to humans but also to all other biological systems including microorganisms. The majority of the studies of the effect of UV light on microbes and its modes of action have shown the formation of thymidine dimers, which cause mutations and excessive exposure thus leads to death of the bacteria. […] Therefore, the assays involving the screening of potential UV protectant compounds against bacterial system exposure in presence and absence of test compound is easy, less time consuming and environmentally safe. We carried out simple experiments involving the bacterium Escherichia coli (Wild type) (Kumar, 5. 1976. Journal of Bacteriology, 125: 545-555) as the test system. Escherichia coli is a Gram negative bacterium and sensitive to ultraviolet light. The bacterial cells were grown in broth cultures were exposed to UV light for different time periods and the survival in terms of colony forming units was determined to estimate the killing percentage. The experiments comprised of a series of different steps in two distinct manners/routes (Example 1 and 2 below). In these examples, various quantities were mentioned are not confined to the said limits but can be variable depending upon the need and scale of experiment or screen to be employed. Two different approaches as described below were followed. In one case, the bacterial cells were grown in presence of the test compound and then exposed to UV while, in other case the bacteria were exposed to the two wavelength of UV light filtered through a UV transparent film coated with the compound and using uncoated film as control.
Exposure of the Bacteria to UV Light Through a UV Transparent Film Coated with the Compound
Step A: Growing bacterial cultures: The wild type strain, CA 8000 of Escherichia coli was used in the assays. A single colony was inoculated in 5 ml Luria broth and incubated at 37° C. temperature for 16 hour in a water bath shaker. Bacteria were grown in presence of test compounds with plain LB as growth medium.
Step B: The bacterial culture was harvested by centrifugation and pellet was suspended in equal amount of sterile distilled water. The bacterial pellet was harvested by centrifuging at 5000 RPM for 10 minute and suspended in 25 ml sterile distilled water.
Step C: About 0.3 ml of the broth culture of the bacteria was transferred to petriplates forming a thin layer at the bottom (in replicates). At least 5 replicates per treatment were used along with control plates containing bacteria.
Step D: The plates were covered with UV transparent film, which was coated with different concentrations of the test compounds.
Step E: In the dark room a UV source was placed at least 10 cm above the plates (which may vary depending upon the experiment). In this invention, the UV torch emitting two-fixed wavelength (312 nm and 365 nm) was used.
Step F: Light source was switched-on for different time intervals for the predetermined lethality levels based on the killing curve of control bacteria determined by UV exposure through uncoated film.
Step G: The viable cfu (colony forming unit) count was determined by serially diluting the exposed and control bacteria and then plating on the Luria agar plates followed by counting the viable units of the bacteria forming colonies (Table 1).

Data set [2] shares this test system. Briefly: UV protection assay for bacteria cultivated in presence of the compounds. It is filed as cell-based. The settings on record: for Titre estimated (cfu), Initial: bacteria grown in presence of compound, before UV exposure, control 3.73 × 10^7; for Killing % in comparison to the control: bacteria grown with compound, UV exposed.
From the text: as §1
UV Protection Assays for the Bacteria Cultivated in Presence of the Compounds
Step A: Growing bacterial cultures: The wild type strain CA 8000 of Escherichia coli was in the assays. A single colony was inoculated in 5 ml Luria broth and incubated at 37° C. temperature for 16 hour in a water bath shaker. Bacteria were grown in presence of test compounds with plain LB as growth medium.
Step B: Determining killing percentage of bacteria in relation to UV exposure time: This was done in the following steps.
a. The broth culture was diluted to 10 times in sterile water.
b. About 0.3 ml of the diluted bacterial suspension was transferred to the petriplates forming a thin layer at the bottom (in replicates).
c. In the dark room a UV source was placed at least 10 cm above the plates (This distance may vary depending upon the need of the experiment)
d. The cfu (colony forming unit) count was determined by serially diluting the exposed and control bacteria and plating on the Luria agar plate followed by counting the viable units of the bacteria forming colonies upon incubation at 37° C. overnight.
These two exposure levels were used further in our experiment to test the efficacy of different compounds for UV protection.
Step C: The bacterial cultures were grown in presence of different concentrations of the test compounds, exposed in the same way as in step B and viable cfu count was determined.

The mark [3] stands for this setting: UV exposure equivalent to lethality level 10%.
[4] abbreviates: UV exposure equivalent to lethality level 25%.
Where [5] appears, read: UV exposure equivalent to lethality level 50%.
[6] abbreviates: 120 seconds UV exposure (LD70), control 1.119 × 10^7.
The mark [7] stands for this setting: 120 seconds UV exposure, control 70.00%.
The mark [8] stands for this setting: 150 seconds UV exposure (LD80), control 0.746 × 10^7.
The mark [9] stands for this setting: 150 seconds UV exposure, control 80.00%.

Turning to `CC1CCC(C(C)C)C(OC(=O)c2ccccc2)C1` (stereo not shown) [Menthyl benzoate, Menthyl Benzoate], the entries for the “Protection (%)” value in data set [1] (setting [3]), in data set [1] (setting [4]) and in data set [1] (setting [5]) were 70.01%, 24.58% and 12.67%, respectively. Also, the results for the “Titre after UV exposure, film coated with menthyl benzoate” value in data set [1] (setting [3]), in data set [1] (setting [4]) and in data set [1] (setting [5]) were 2.415 × 10^8 cfu per ml, 2.020 × 10^8 cfu per ml and 1.400 × 10^8 cfu per ml, respectively. Besides, the “Killing (%), film coated with menthyl benzoate” value in data set [1] (UV exposure equivalent to lethality level 10%, uncoated film 10.04%) is given as 3.01%; in data set [1] (UV exposure equivalent to lethality level 25%, uncoated film 25.02%) it was 18.87%; in data set [1] (UV exposure equivalent to lethality level 50%, uncoated film 50.12%), 43.77%. In data set [1] (at all levels of lethality tested), the “Effect on percentage of lethality of the bacteria” value is “reduced the percentage of lethality of the bacteria”. The “Most optimum concentration coated on the film for UV protection” value in data set [1] (out of all concentrations coated on the film, higher concentration does not substantially increase protection) is reported as 50 μg per ml. The “UV protection in comparison to other known UV protectants” value in data set [2] (50 μg/ml in culture) is “significant protection”. For the same compound, the “Titre estimated (cfu), final after UV exposure” value (from here on “Titre estimated (cfu), final”) in data set [2] (setting [6]) is reported as 1.660 × 10^7 cfu; in data set [2] (setting [8]) it was 1.300 × 10^7 cfu. Moreover, the “Killing (%) after UV exposure” value in data set [2] (setting [7]) is listed as 55.49%; in data set [2] (setting [9]), 65.15%. Further, in data set [2], the “Titre estimated (cfu), Initial” value was 3.73 × 10^7 cfu. The “Protection efficiency, comparison between compounds” value in data set [2] (descending series of the three compounds) was “better protectant than the commercially used dibenzoyl methane”. Further, the “Safety to the bacterial system: titre (cfu) when bacteria are grown in presence of the compound” value in data set [2] (treated versus untreated cultures, no UV) is “no decrease of titre was observed”.

With `O=C(CC(=O)c1ccccc1)c1ccccc1` [Dibenzoyl methane], the “Titre estimated (cfu), final” value in data set [2] (setting [6]) is on record as 1.162 × 10^7 cfu; in data set [2] (setting [8]) it was 1.050 × 10^7 cfu. For the same compound, the “Killing (%) after UV exposure” value stood at 68.85% in data set [2] (setting [7]) and 71.85% in data set [2] (setting [9]). The “Titre estimated (cfu), Initial” value in data set [2] is reported as 3.73 × 10^7 cfu. Besides, the “Killing % in comparison to the control” value in data set [2] is reported as “much less in comparison to the control”.

`O=C(OCc1ccccc1)c1ccccc1` [Benzyl benzoate, Benzyl Benzoate]: the “Titre estimated (cfu), final” value is 1.460 × 10^7 cfu in data set [2] (setting [6]) and 1.240 × 10^7 cfu in data set [2] (setting [8]). The “Killing (%) after UV exposure” value in data set [2] (setting [7]) is listed as 60.86%; in data set [2] (setting [9]), 66.75%. Also, in data set [2], the “Titre estimated (cfu), Initial” value is 3.73 × 10^7 cfu. For the same compound, the “Killing % in comparison to the control” value in data set [2] is recorded as “much less in comparison to the control”.
